Key:
Assay type in all cases: binding
CAMK2D = CAMK2D (Homo sapiens, UniProt Q13557); assay: KINOMEscan; conditions: 1 μM of compound 4; read-out: POC
PIP5K1C = PIP5K1C (Homo sapiens, UniProt O60331); assay: KINOMEscan; conditions: 1 μM of compound 4; read-out: POC
PRKG2 = PRKG2 (Homo sapiens, UniProt Q13237); assay: KINOMEscan; conditions: 1 μM of compound 4; read-out: POC
SRPK2 = biological target: T1, SRPK2 (Homo sapiens, UniProt P78362); assay: KINOMEscan; conditions: 1 μM of compound 4; read-out: POC
T1 construct: purchased Eurofins DiscoverX (KINOMEscan service)

PDGFRA = biological target: T2, PDGFRA (Homo sapiens, UniProt P16234); assay: KINOMEscan; conditions: 1 μM of compound 4; read-out: POC
T2 construct: purchased Eurofins DiscoverX Corporation (KINOMEscan)

PFCDPK1(P. falciparum) = biological target: T3, PFCDPK1(P. falciparum) (Plasmodium falciparum, UniProt P62344); assay: KINOMEscan; conditions: 1 μM of compound 4; read-out: POC
T3 construct: purchased Eurofins DiscoverX Corporation (KINOMEscan)

468 kinases = assay: KINOMEscan selectivity screening; conditions: 1 μM
HCK = biological target: T4, HCK (Homo sapiens, UniProt P08631); assay: KINOMEscan; conditions: 1 μM of compound 4; read-out: POC
T4 construct: purchased Eurofins DiscoverX Corporation

MERTK = MERTK (Homo sapiens, UniProt Q12866); assay: KINOMEscan; conditions: 1 μM of compound 4; read-out: POC
MAP4K4 = MAP4K4 (Homo sapiens, UniProt O95819); assay: KINOMEscan; conditions: 1 μM of compound 4; read-out: POC
FLT3(D835V) = biological target: T5, FLT3(D835V) (Homo sapiens, UniProt P36888, D835V); assay: KINOMEscan; conditions: 1 μM of compound 4; read-out: POC
T5 construct: purchased Eurofins DiscoverX Corporation

PLK4 = PLK4 (Homo sapiens, UniProt O00444); assay: KINOMEscan; conditions: 1 μM of compound 4; read-out: POC
CHEK1 = CHEK1 (Homo sapiens, UniProt O14757); assay: KINOMEscan; conditions: 1 μM of compound 4; read-out: POC
GRK4 = biological target: T6, GRK4 (Homo sapiens, UniProt P32298); assay: KINOMEscan; conditions: 1 μM of compound 4; read-out: POC
T6 construct: purchased Eurofins DiscoverX Corporation

NDR2 = NDR2 (Homo sapiens, UniProt Q9Y2H1); assay: KINOMEscan; conditions: 1 μM of compound 4; read-out: POC
DAPK3 = DAPK3 (Homo sapiens, UniProt O43293); assay: KINOMEscan; conditions: 1 μM of compound 4; read-out: POC
Sequence of DAPK3 (O43293 whole entry): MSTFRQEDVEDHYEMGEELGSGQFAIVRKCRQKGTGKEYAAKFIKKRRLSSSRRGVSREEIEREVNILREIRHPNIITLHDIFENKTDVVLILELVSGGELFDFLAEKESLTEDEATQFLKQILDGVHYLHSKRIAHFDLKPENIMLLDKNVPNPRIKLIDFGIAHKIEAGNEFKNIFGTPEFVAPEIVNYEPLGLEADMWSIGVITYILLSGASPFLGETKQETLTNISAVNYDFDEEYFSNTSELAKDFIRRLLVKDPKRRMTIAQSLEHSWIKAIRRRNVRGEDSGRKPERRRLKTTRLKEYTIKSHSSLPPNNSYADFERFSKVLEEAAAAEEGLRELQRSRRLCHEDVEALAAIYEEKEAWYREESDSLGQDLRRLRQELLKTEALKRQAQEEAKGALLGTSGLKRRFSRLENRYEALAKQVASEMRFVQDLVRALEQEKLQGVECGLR

EGFR(S752-1759del) = biological target: T7, EGFR(S752-1759del) (Homo sapiens, UniProt P00533, DEL752-759); assay: KINOMEscan; conditions: 1 μM of compound 4; read-out: POC
T7 construct: purchased Eurofins DiscoverX (KINOMEscan service)

JNK2 = JNK2 (Homo sapiens, UniProt P45984); assay: KINOMEscan; conditions: 1 μM of compound 4; read-out: POC
ALK(L1196M) = ALK(L1196M) (Homo sapiens, UniProt Q9UM73, L1196M); assay: KINOMEscan; conditions: 1 μM of compound 4; read-out: POC
[1] = biological target: T8, RPS6KA4(Kin.Dom.1-N-terminal) (Homo sapiens, UniProt O75676); assay: KINOMEscan; conditions: 1 μM of compound 4; read-out: POC
T8 construct: RPS6KA4(Kin.Dom.1-N-terminal); purchased Eurofins DiscoverX Corporation (KINOMEscan screening service)
T8 sequence (O75676 33-301 limits assumed): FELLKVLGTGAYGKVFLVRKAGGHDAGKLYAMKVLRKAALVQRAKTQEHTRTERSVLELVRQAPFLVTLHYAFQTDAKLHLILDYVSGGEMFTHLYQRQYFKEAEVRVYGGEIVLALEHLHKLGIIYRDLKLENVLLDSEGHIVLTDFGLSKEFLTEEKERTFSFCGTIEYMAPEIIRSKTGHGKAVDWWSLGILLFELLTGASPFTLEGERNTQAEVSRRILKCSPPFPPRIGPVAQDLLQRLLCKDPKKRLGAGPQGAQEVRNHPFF

GAK = biological target: T9, GAK (Homo sapiens, UniProt O14976); assay: KINOMEscan; conditions: 1 μM of compound 4; read-out: POC
T9 construct: purchased Eurofins DiscoverX Corporation
T9 sequence (O14976 whole entry): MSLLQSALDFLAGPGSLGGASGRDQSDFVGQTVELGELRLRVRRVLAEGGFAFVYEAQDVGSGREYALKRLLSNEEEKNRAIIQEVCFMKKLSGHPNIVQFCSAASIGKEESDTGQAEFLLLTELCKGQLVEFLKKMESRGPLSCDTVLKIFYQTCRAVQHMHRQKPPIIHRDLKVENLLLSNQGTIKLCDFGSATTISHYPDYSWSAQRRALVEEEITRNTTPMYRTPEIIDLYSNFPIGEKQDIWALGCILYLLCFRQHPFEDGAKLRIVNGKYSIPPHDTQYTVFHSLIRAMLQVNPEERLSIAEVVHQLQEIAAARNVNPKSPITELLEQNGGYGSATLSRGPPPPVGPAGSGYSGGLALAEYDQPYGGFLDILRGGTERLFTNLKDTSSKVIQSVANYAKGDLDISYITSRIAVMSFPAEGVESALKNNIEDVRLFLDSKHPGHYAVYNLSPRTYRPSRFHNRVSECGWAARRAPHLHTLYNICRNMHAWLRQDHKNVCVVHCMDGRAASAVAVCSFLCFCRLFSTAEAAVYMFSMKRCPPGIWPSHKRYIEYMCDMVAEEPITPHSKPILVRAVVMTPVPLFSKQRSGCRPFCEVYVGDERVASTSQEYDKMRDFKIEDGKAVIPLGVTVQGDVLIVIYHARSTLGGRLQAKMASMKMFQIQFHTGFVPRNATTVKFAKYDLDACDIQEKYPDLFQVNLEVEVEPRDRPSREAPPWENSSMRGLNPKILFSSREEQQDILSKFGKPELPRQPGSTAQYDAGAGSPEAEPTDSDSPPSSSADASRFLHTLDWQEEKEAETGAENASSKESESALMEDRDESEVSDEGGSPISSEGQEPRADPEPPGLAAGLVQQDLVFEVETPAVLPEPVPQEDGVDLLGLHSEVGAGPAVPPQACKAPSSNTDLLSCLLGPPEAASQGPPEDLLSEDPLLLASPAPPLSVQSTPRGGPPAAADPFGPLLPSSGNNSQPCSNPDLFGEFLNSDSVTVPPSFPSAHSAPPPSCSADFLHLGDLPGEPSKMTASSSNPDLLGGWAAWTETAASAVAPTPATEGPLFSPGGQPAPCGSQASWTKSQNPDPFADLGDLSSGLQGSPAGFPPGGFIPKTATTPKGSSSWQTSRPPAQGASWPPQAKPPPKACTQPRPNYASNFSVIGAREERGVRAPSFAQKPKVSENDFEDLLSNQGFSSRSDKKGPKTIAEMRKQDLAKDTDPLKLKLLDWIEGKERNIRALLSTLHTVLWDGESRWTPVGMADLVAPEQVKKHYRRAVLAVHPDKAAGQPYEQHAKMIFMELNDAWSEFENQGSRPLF

SNARK = biological target: T10, SNARK (Homo sapiens, UniProt Q9H093); assay: KINOMEscan; conditions: 1 μM of compound 4; read-out: POC
T10 construct: purchased Eurofins DiscoverX (KINOMEscan service)

NEK1 = NEK1 (Homo sapiens, UniProt Q96PY6); assay: KINOMEscan; conditions: 1 μM of compound 4; read-out: POC
PHKG1 = PHKG1 (Homo sapiens, UniProt Q16816); assay: KINOMEscan; conditions: 1 μM of compound 4; read-out: POC
PKN2 = PKN2 (Homo sapiens, UniProt Q16513); assay: KINOMEscan; conditions: 1 μM of compound 4; read-out: POC
EPHB6 = biological target: T11, EPHB6 (Homo sapiens, UniProt O15197); assay: KINOMEscan; conditions: 1 μM of compound 4; read-out: POC
T11 construct: purchased Eurofins DiscoverX (KINOMEscan service)

ERBB2 = biological target: T12, ERBB2 (Homo sapiens, UniProt P04626); assay: KINOMEscan; conditions: 1 μM of compound 4; read-out: POC
T12 construct: purchased Eurofins DiscoverX Corporation
T12 sequence (P04626 23-1255): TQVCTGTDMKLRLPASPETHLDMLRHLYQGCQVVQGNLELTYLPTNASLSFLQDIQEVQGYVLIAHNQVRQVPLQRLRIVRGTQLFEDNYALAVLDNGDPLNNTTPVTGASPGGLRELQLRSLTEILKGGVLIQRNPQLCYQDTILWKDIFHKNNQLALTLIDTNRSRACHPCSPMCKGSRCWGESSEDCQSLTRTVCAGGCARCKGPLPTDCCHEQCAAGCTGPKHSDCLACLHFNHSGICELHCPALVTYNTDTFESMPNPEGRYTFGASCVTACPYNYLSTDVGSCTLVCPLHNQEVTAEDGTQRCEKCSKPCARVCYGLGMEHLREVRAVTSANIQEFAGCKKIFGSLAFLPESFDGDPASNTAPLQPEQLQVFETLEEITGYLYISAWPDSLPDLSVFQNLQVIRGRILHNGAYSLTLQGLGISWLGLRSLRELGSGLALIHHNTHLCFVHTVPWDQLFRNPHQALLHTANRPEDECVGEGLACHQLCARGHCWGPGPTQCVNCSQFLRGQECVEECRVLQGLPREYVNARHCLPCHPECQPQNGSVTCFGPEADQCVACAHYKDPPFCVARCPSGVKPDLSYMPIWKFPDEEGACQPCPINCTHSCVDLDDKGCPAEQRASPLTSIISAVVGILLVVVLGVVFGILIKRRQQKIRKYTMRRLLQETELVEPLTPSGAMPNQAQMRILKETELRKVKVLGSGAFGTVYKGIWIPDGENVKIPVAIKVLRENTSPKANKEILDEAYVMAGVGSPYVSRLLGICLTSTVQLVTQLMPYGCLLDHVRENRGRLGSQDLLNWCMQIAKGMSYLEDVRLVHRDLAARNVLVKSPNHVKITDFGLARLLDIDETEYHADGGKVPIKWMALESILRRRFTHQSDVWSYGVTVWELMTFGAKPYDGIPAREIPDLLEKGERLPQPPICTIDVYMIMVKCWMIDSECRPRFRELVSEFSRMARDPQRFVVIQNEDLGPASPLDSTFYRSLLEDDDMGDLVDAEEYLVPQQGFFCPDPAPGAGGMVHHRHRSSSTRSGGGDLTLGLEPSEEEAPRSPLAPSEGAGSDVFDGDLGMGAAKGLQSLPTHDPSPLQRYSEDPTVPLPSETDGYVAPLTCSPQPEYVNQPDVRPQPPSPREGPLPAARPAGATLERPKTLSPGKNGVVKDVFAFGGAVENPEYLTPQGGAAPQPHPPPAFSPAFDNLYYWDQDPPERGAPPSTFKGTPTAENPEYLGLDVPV

SGK3 = biological target: T13, SGK3 (Homo sapiens, UniProt Q96BR1); assay: KINOMEscan; conditions: 1 μM of compound 4; read-out: POC
T13 construct: purchased Eurofins DiscoverX (KINOMEscan service)
T13 sequence (Q96BR1 whole entry): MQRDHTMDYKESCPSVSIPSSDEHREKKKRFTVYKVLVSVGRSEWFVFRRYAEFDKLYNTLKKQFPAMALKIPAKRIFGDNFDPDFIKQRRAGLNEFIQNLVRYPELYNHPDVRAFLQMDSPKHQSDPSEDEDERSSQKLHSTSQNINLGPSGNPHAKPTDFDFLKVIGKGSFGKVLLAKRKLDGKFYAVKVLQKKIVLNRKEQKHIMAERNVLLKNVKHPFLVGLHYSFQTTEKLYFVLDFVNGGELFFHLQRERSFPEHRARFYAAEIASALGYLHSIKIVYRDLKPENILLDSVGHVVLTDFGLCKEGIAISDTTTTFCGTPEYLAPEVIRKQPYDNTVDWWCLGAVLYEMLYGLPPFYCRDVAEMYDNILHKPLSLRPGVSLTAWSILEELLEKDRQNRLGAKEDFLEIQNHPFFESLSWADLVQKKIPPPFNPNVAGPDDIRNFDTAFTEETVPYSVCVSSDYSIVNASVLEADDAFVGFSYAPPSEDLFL

NIM1 = biological target: T14, NIM1 (Homo sapiens, UniProt Q8IY84); assay: KINOMEscan; conditions: 1 μM of compound 4; read-out: POC
T14 construct: purchased Eurofins DiscoverX Corporation (KINOMEscan)

ALK = ALK (Homo sapiens, UniProt Q9UM73); assay: KINOMEscan; conditions: 1 μM of compound 4; read-out: POC
STK35 = biological target: T15, STK35 (Homo sapiens, UniProt Q8TDR2); assay: KINOMEscan; conditions: 1 μM of compound 4; read-out: POC
T15 construct: purchased Eurofins DiscoverX (KINOMEscan service)

PRKX = PRKX (Homo sapiens, UniProt P51817); assay: KINOMEscan; conditions: 1 μM of compound 4; read-out: POC
CAMK2G = CAMK2G (Homo sapiens, UniProt Q13555); assay: KINOMEscan; conditions: 1 μM of compound 4; read-out: POC
MYLK4 = MYLK4 (Homo sapiens, UniProt Q86YV6); assay: KINOMEscan; conditions: 1 μM of compound 4; read-out: POC
LATS1 = LATS1 (Homo sapiens, UniProt O95835); assay: KINOMEscan; conditions: 1 μM of compound 4; read-out: POC
PLK2 = PLK2 (Homo sapiens, UniProt Q9NYY3); assay: KINOMEscan; conditions: 1 μM of compound 4; read-out: POC
BTK = BTK (Homo sapiens, UniProt Q06187); assay: KINOMEscan; conditions: 1 μM of compound 4; read-out: POC
TNK1 = biological target: T16, TNK1 (Homo sapiens, UniProt Q13470); assay: KINOMEscan; conditions: 1 μM of compound 4; read-out: POC
T16 construct: purchased Eurofins DiscoverX Corporation

TRKC = biological target: T17, TRKC (Homo sapiens, UniProt Q16288); assay: KINOMEscan; conditions: 1 μM of compound 4; read-out: POC
T17 construct: purchased Eurofins DiscoverX Corporation
T17 sequence (Q16288 32-839): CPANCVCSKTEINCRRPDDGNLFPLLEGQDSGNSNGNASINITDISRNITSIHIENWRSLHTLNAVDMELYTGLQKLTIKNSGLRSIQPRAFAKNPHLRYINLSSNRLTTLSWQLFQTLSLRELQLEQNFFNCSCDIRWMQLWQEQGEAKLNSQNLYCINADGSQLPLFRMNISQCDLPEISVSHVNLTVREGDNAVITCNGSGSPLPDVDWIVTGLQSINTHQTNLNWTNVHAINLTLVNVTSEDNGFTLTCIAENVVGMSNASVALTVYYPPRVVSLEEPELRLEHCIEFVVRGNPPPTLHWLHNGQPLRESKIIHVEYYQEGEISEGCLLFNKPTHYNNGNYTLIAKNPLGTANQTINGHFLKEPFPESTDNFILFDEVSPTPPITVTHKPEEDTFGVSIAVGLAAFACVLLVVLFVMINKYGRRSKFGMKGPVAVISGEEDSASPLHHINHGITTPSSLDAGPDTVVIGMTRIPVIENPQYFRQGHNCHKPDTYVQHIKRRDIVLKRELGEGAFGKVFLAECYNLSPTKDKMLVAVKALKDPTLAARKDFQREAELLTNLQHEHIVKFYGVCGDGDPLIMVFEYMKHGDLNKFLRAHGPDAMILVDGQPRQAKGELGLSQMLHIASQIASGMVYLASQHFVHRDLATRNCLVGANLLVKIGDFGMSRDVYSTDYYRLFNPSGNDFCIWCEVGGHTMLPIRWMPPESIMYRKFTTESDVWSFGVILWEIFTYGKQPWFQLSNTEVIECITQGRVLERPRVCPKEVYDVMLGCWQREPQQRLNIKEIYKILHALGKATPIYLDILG

Sequence of CAMK2D (Q13557 whole entry): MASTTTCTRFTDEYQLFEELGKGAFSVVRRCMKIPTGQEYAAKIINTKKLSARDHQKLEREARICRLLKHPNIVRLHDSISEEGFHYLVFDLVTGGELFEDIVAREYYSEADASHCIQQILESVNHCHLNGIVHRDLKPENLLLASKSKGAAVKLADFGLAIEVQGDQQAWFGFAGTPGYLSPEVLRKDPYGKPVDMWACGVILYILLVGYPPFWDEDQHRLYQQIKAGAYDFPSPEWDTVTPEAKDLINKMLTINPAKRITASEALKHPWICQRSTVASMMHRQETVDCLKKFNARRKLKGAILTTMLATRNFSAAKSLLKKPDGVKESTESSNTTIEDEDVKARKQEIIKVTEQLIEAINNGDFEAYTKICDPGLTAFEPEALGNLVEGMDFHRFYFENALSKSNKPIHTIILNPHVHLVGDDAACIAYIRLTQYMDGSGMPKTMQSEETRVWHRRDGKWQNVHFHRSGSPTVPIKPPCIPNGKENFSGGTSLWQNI

Work on `C=CC(=O)Nc1ccc(OC)c(Nc2cc(-c3[nH]c(CC)nc3-c3cccc(NC(=O)c4cccc5c4NC(=O)c4ccccc4N5)c3)ccn2)c1` [Compound 4, N-(3-(5-(2-((5-Acrylamido-2-methoxyphenyl)amino)pyridin-4-yl)-2-ethyl-1H-imidazol-4-yl)phenyl)-11-oxo-10,11-dihydro-5H-dibenzo[b,e][1,4]diazepine-9-carboxamide] yielded a remaining binding at 1 µM (CAMK2D) of 88%, a remaining binding at 1 µM (PIP5K1C) of 78% and a remaining binding at 1 µM (PRKG2) of 62%. It also gave a remaining binding at 1 µM (SRPK2) of 100%, a remaining binding at 1 µM (PDGFRA) of 69% and a remaining binding at 1 µM (PFCDPK1(P. falciparum)) of 87%. For the same compound, the “S (35) kinome selectivity” value (468 kinases) was 0.084, the remaining binding at 1 µM (HCK) was 14% and the remaining binding at 1 µM (MERTK) was 83%. The remaining binding at 1 µM (MAP4K4) was 6.1%, the remaining binding at 1 µM (FLT3(D835V)) was 100% and the remaining binding at 1 µM (PLK4) was 71%. For the same compound, the remaining binding at 1 µM (CHEK1) was 100%, the remaining binding at 1 µM (GRK4) was 100% and the remaining binding at 1 µM (NDR2) was 77%. The remaining binding at 1 µM (DAPK3) was 62%, the remaining binding at 1 µM (EGFR(S752-1759del)) was 6% and the remaining binding at 1 µM (JNK2) was 78%. For the same compound, the remaining binding at 1 µM (ALK(L1196M)) was 89%, the remaining binding at 1 µM [1] was 96% and the remaining binding at 1 µM (GAK) was 16%. The remaining binding at 1 µM (SNARK) was 100%, the remaining binding at 1 µM (NEK1) was 90% and the remaining binding at 1 µM (PHKG1) was 96%. For the same compound, the remaining binding at 1 µM (PKN2) was 100%, the remaining binding at 1 µM (EPHB6) was 100% and the remaining binding at 1 µM (ERBB2) was 18%. It also gave a remaining binding at 1 µM (SGK3) of 90%, a remaining binding at 1 µM (NIM1) of 78% and a remaining binding at 1 µM (ALK) of 100%. The remaining binding at 1 µM (STK35) was 69%, the remaining binding at 1 µM (PRKX) was 100% and the remaining binding at 1 µM (CAMK2G) was 100%. For the same compound, the remaining binding at 1 µM (MYLK4) was 95%, the remaining binding at 1 µM (LATS1) was 100% and the remaining binding at 1 µM (PLK2) was 100%. The remaining binding at 1 µM (BTK) was 54%, the remaining binding at 1 µM (TNK1) was 22% and the remaining binding at 1 µM (TRKC) was 87%.
